SMILES strings stand for the structures.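 Values below derive from 48-hour exposures of cells grown in 96-well plates, with endpoints linearly interpolated between the two concentrations bracketing the appropriate inhibition level. TGI is the concentration that stops growth completely.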

Test systems include RPMI-8226 leukemia; SN12C renal; HS 578T breast; OVCAR-5 ovarian; HCT-15 colon; UACC-62 melanoma; MCF7 breast; LOX IMVI melanoma; TK-10 renal; T-47D breast.
Assay in all cases: DTP human tumour cell line panel, 48 h

`O=C(c1ccccc1F)c1c(NCc2ccccc2)c(=O)c1=O`: the TGI with RPMI-8226 leukemia, in the test on SN12C renal, in the test with HS 578T breast, in the test with OVCAR-5 ovarian, in the test on HCT-15 colon and with UACC-62 melanoma was more than 100 µM each time. For the same compound, the TGI in the test with MCF7 breast, in the test on LOX IMVI melanoma and with TK-10 renal was more than 100 µM in each case.

Regarding `COc1ccccc1C(=O)c1c(N2CCCCC2)c(=O)c1=O`, the TGI in the test with RPMI-8226 leukemia, with SN12C renal, in the test with OVCAR-5 ovarian, with HCT-15 colon, in the test with UACC-62 melanoma and in the test with MCF7 breast was more than 100 µM in each case. The TGI in the test with LOX IMVI melanoma and with TK-10 renal was more than 100 µM throughout.

Consider `Cc1cnc(Cl)nc1C(C#N)c1nc2ccccc2n1C` (stereo unspecified), for which the TGI in the test with RPMI-8226 leukemia, in the test with SN12C renal, in the test with OVCAR-5 ovarian, in the test with HCT-15 colon, in the test on LOX IMVI melanoma and in the test with TK-10 renal was more than 100 µM each time. Besides, in the test with T-47D breast, the TGI is more than 100 µM.

As for `O=c1c(Cc2ccc(Cl)cc2)nnc2sc(-c3ccc([N+](=O)[O-])cc3)nn12`, the TGI with RPMI-8226 leukemia was 89.9 µM; in the test with SN12C renal, more than 100 µM; with HS 578T breast it was more than 100 µM; in the test on OVCAR-5 ovarian, 88.1 µM; in the test on HCT-15 colon, 29.3 µM; in the test with UACC-62 melanoma, 34 µM. Further, the TGI in the test on MCF7 breast was 53 µM; in the test on LOX IMVI melanoma it was more than 100 µM; with TK-10 renal, 68.4 µM.

For the compound `c1ccc(C2=NN3CN(N2)c2ccccc2OCCCOc2ccccc23)cc1`, the TGI in the test with RPMI-8226 leukemia, with SN12C renal, in the test on OVCAR-5 ovarian, in the test on HCT-15 colon, in the test with UACC-62 melanoma and in the test with LOX IMVI melanoma was more than 100 µM throughout. The compound further registered a TGI in the test on TK-10 renal of more than 100 µM.

With `O=C1CCSSCCC(=O)Nc2ccccc2N1`, the TGI in the test with RPMI-8226 leukemia, in the test on SN12C renal, in the test with HS 578T breast, with OVCAR-5 ovarian, in the test with HCT-15 colon and with UACC-62 melanoma was more than 100 µM each time. In addition, the TGI with LOX IMVI melanoma, in the test on TK-10 renal and in the test on T-47D breast was more than 100 µM throughout.

Turning to `Cc1cs/c(=N\C(P(=O)(O)O)P(=O)(O)O)n1C`, the TGI was more than 100 µM in the test on RPMI-8226 leukemia; 47.8 µM in the test with HS 578T breast; more than 100 µM with OVCAR-5 ovarian; more than 100 µM in the test on HCT-15 colon; more than 100 µM with UACC-62 melanoma; more than 100 µM in the test with MCF7 breast. Further, the TGI in the test on LOX IMVI melanoma and in the test on TK-10 renal was more than 100 µM throughout.

For the compound `Cc1nc2c(n1Cc1ccc(Cl)cc1)C(=O)c1ccccc1C2=O`, the TGI with SN12C renal, with HCT-15 colon, in the test with UACC-62 melanoma, in the test on LOX IMVI melanoma and in the test on TK-10 renal was more than 75 µM throughout.

As to `CC1(C)CC(=O)C(/C=N/c2nc(-c3ccc(Br)cc3)cs2)=C(O)C1`, the TGI in the test with SN12C renal was more than 100 µM; with OVCAR-5 ovarian it was more than 100 µM; with HCT-15 colon, 49.7 µM; with MCF7 breast, more than 100 µM; in the test with LOX IMVI melanoma it was 52.4 µM; in the test with TK-10 renal, 40.2 µM. Moreover, in the test with T-47D breast, the TGI is more than 100 µM.

Consider `COC(=O)Cc1c(C2=Nc3ccccc3C2(O)CC(=O)OC)[nH]c2ccccc12` (stereo unspecified), for which the TGI in the test on RPMI-8226 leukemia, with SN12C renal, in the test with HS 578T breast, with OVCAR-5 ovarian, in the test with HCT-15 colon and in the test with UACC-62 melanoma was more than 100 µM each time. The TGI with LOX IMVI melanoma, in the test on TK-10 renal and in the test on T-47D breast was more than 100 µM each time.

Turning to `CC(C)(CN1CCCCC1)C(=O)CC(SCCS(=O)(=O)O)c1ccc(Br)cc1` (stereo unspecified), the TGI with RPMI-8226 leukemia amounted to 4.66 µM; with SN12C renal, 2.97 µM; in the test on OVCAR-5 ovarian, 9.34 µM; in the test with HCT-15 colon it was 6.91 µM; with UACC-62 melanoma, 3.69 µM; in the test with TK-10 renal it was 7.97 µM.

Consider `O=C1CCC2(CC1)Cc1ccccc1C2O` (stereo unspecified), for which the TGI in the test on SN12C renal, in the test with HS 578T breast, in the test on OVCAR-5 ovarian, in the test with HCT-15 colon, in the test with UACC-62 melanoma and in the test on MCF7 breast was more than 100 µM in each case. Moreover, the TGI in the test with LOX IMVI melanoma, in the test on TK-10 renal and in the test on T-47D breast was more than 100 µM in each case.

Turning to `CCCCCCCCCCCCCCCCOCC(CC(F)(F)P(=O)(O)O)OC(C)=O` (stereo unspecified), the TGI in the test on RPMI-8226 leukemia, with SN12C renal, with OVCAR-5 ovarian, with HCT-15 colon, in the test with UACC-62 melanoma and in the test on MCF7 breast was more than 50 µM throughout. The same compound gave a TGI with TK-10 renal of more than 50 µM.

Regarding `CNc1ccc2nc(-c3ccc(OC(=O)N(C)C)cc3)cn2c1`, the TGI is 27.2 µM with SN12C renal; more than 100 µM in the test on HS 578T breast; 46 µM in the test on OVCAR-5 ovarian; 40.2 µM in the test with HCT-15 colon; 35.1 µM in the test on UACC-62 melanoma; 43.6 µM with MCF7 breast. Also, the figures for the TGI in the test on LOX IMVI melanoma, in the test with TK-10 renal and in the test with T-47D breast were 31.6 µM, 34.3 µM and 47.2 µM, respectively.

For the compound `Cc1ccc(S(=O)(=O)C(C#N)c2nc3ccccc3nc2-n2cccn2)cc1` (stereo unspecified), the TGI with RPMI-8226 leukemia, with SN12C renal, in the test with OVCAR-5 ovarian, in the test with HCT-15 colon and in the test on TK-10 renal was more than 100 µM throughout.

`Oc1ccc(-c2c3c(nc4c2CCc2ccc(Br)cc2-4)-c2cc(Br)ccc2CC3)cc1`: the TGI in the test with RPMI-8226 leukemia was determined as 77.3 µM; in the test on SN12C renal, 43.6 µM; in the test with OVCAR-5 ovarian it was 40.6 µM; in the test with HCT-15 colon, 35.5 µM; with UACC-62 melanoma, 44.2 µM; in the test with MCF7 breast, 43.1 µM. Further, the values for the TGI in the test on TK-10 renal and in the test with T-47D breast were 45.4 µM and 42.6 µM, respectively.

Turning to `CCCCCCCCCCCCC(=O)NCC(=O)NC(Cc1ccccc1)C(=O)Oc1ccc([N+](=O)[O-])cc1` (stereo unspecified), the TGI with SN12C renal, in the test with HS 578T breast, in the test with OVCAR-5 ovarian, in the test on HCT-15 colon, with UACC-62 melanoma and in the test with MCF7 breast was more than 100 µM throughout. Further, the TGI in the test on LOX IMVI melanoma, in the test on TK-10 renal and in the test on T-47D breast was more than 100 µM in each case.

A word on the TGI: it is the concentration giving total growth inhibition. Read a low TGI as more potent growth arrest.

These data come from PubChem BioAssay (NCI).
